pIC50: −log10 of the molar value. Converted amounts (≈) assume the structure as drawn. The source made the active and inactive calls. No cut-off for these calls is given here. Where a SMILES comes first, the peptide text is derived from it.
Legend:
Staphylococcus aureus [1] = assay: Antibacterial activity against Staphylococcus aureus ATCC 25923 at 0.5 to 1 times MIC incubated for 24 hrs by crystal violet staining based assay; type: functional, organism-based
[2] = Stability in BALB/C mouse serum measured up to 1440 mins by HPLC analysis; type: ADME, cell-free
Bacteria [3] = assay: Antibacterial activity against bacteria incubated for 18 hrs by CLSI based broth dilution method; type: functional
Escherichia coli [4] = assay: Antibacterial activity against Escherichia coli ATCC 25922 incubated for 18 hrs by CLSI based broth dilution method; type: functional
Cell membrane [5] = assay: Disruption of membrane integrity in Staphylococcus aureus ATCC 25923 assessed as bacterial death at 1 times MIC measured within 0.5 hrs by scanning electron microscopy; type: subcellular
Klebsiella pneumoniae [6] = assay: Antibiofilm activity against Klebsiella pneumoniae ATCC 700603 at 2 to 4 times MIC incubated for 24 hrs by crystal violet staining based assay; type: functional, organism-based
Bacillus subtilis = assay: Antibacterial activity against Bacillus subtilis ATCC 23857 incubated for 18 hrs by CLSI based broth dilution method; type: functional
Erythrocyte = assay: Hemolytic activity in BALB/C mouse erythrocytes incubated for 1 hr by absorbance method; type: ADME, cell-based
Staphylococcus aureus [7] = assay: Disruption of bacterial cell membrane in Staphylococcus aureus ATCC 25923 assessed as increase in PI uptake incubated for 30 to 120 mins by FACS flow cytometry; type: functional, organism-based; conditions: time 30-120 min
Escherichia coli [8] = assay: Antibiofilm activity against Escherichia coli ATCC 25922 at 4 times MIC incubated for 24 hrs by crystal violet staining based assay; type: functional, organism-based
[9] = Selectivity ratio of MHC10 for BALB/C mouse erythrocytes to MIC for gram positive bacteria; type: toxicity
[10] = tested on: Staphylococcus epidermidis; assay: Antibacterial activity against Staphylococcus epidermidis ATCC 12228 incubated for 18 hrs by CLSI based broth dilution method; type: functional
Staphylococcus aureus [11] = assay: Bactericidal activity against Staphylococcus aureus ATCC 25923 at 2MIC by time-kill assay; type: functional, organism-based; conditions: time 24.0 hrs, TDE = time-dependent effect
Staphylococcus aureus [12] = assay: Antibacterial activity against Staphylococcus aureus ATCC 25923 incubated with 0.2 to 0.02 ug/ml trypsin for 6 hrs followed by bacterial addition and measured after 18 hrs by CLSI based broth dilution method; type: functional, organism-based; conditions: dose 0.2-0.02 µg/ml, time 23.0 hrs
Pseudomonas aeruginosa [13] = assay: Antibacterial activity against Pseudomonas aeruginosa ATCC 27853 at 0.5 to 4 times MIC incubated for 24 hrs by crystal violet staining based assay; type: functional, organism-based
Enterococcus faecalis = assay: Antibacterial activity against Enterococcus faecalis ATCC 29212 incubated for 18 hrs by CLSI based broth dilution method; type: functional
[14] = Selectivity ratio of MHC10 for BALB/C mouse erythrocytes to MIC for bacteria; type: toxicity
Klebsiella pneumoniae [15] = assay: Antibacterial activity against Klebsiella pneumoniae ATCC 700603 incubated with 0.2 to 0.02 ug/ml trypsin for 6 hrs followed by bacterial addition and measured after 18 hrs by CLSI based broth dilution method; type: functional, organism-based; conditions: dose 0.2-0.02 µg/ml, time 23.0 hrs
Klebsiella pneumoniae [16] = assay: Bactericidal activity against Klebsiella pneumoniae 700603 at 2MIC by time-kill assay relative to control; type: functional; conditions: 2M, TDE = time-dependent effect
Cell membrane [17] = assay: Disruption of membrane integrity in Staphylococcus aureus ATCC 25923 assessed as membrane shrinking at 1 times MIC measured within 0.5 hrs by scanning electron microscopy; type: subcellular
[18] = Selectivity ratio of MHC10 for BALB/C mouse erythrocytes to MIC for gram-negative bacteria; type: toxicity
Klebsiella pneumoniae [19] = assay: Antibacterial activity against Klebsiella pneumoniae ATCC 700603 incubated for 18 hrs by CLSI based broth dilution method; type: functional
Bacteria [20] = assay: Antibacterial activity against Gram-negative bacteria incubated for 18 hrs by CLSI based broth dilution method; type: functional
Acinetobacter baumannii = assay: Antibacterial activity against Acinetobacter baumannii ATCC 19606 incubated for 18 hrs by CLSI based broth dilution method; type: functional; conditions: ATCC 19606 = CIP 70.34 = JCM 6841
Fungi = assay: Antibacterial activity against fungi incubated for 18 hrs by CLSI based broth dilution method; type: functional
Staphylococcus aureus [21] = assay: Antibacterial activity against Staphylococcus aureus ATCC 25923 incubated with 0.2 to 0.02 ug/ml chymotrypsin for 6 hrs followed by bacterial addition and measured after 18 hrs by CLSI based broth dilution method; type: functional, organism-based; conditions: dose 0.2-0.02 µg/ml
Klebsiella pneumoniae [22] = assay: Antibacterial activity against Klebsiella pneumoniae ATCC 700603 incubated with 0.2 to 0.02 ug/ml chymotrypsin for 6 hrs followed by bacterial addition and measured after 18 hrs by CLSI based broth dilution method; type: functional, organism-based; conditions: dose 0.2-0.02 µg/ml, time 23.0 hrs
[23] = Stability in BALB/C mouse serum assessed as compound degradation time measured up to 1440 mins by HPLC analysis; type: ADME, cell-free; conditions: 24 h
Cell membrane [24] = assay: Induction of inner membrane permeabilization in Klebsiella pneumoniae ATCC 700603 at 0.5 to 4MIC using ONPG as substrate by spectroscopic method; type: subcellular; conditions: Klebsiella pneumoniae 700603, 0.5 to 4M
[25] = Selectivity ratio of MHC10 for BALB/C mouse erythrocytes to MIC for fungi; type: toxicity
Bacteria [26] = assay: Antibacterial activity against Gram-positive bacteria incubated for 18 hrs by CLSI based broth dilution method; type: functional
Pseudomonas aeruginosa [27] = assay: Synergistic antibacterial activity against Pseudomonas aeruginosa ATCC 27853 at 2 times MIC incubated for 18 to 24 hrs in presence of 2 times MIC of polymyxin B by broth microdilution assay based checkerboard assay; type: functional; conditions: time 18-24 hrs
[28] = Cytotoxicity against human glomerular mesangial cells incubated for 12 hrs by MTT assay; type: cell-based; conditions: Glomerular mesangial cell
Staphylococcus aureus [29] = assay: Antibacterial activity against Staphylococcus aureus ATCC 25923 incubated for 18 hrs by CLSI based broth dilution method; type: functional
Staphylococcus aureus [30] = assay: Disruption of membrane integrity in Staphylococcus aureus ATCC 25923 assessed as membrane blebbing at 1 times MIC measured within 0.5 hrs by scanning electron microscopy; type: functional, organism-based
Pseudomonas aeruginosa [31] = assay: Antibacterial activity against Pseudomonas aeruginosa ATCC 27853 incubated for 18 hrs by CLSI based broth dilution method; type: functional
Pseudomonas aeruginosa [32] = assay: Antibacterial activity against rifampin-resistant Pseudomonas aeruginosa ATCC 27853 incubated for 18 hrs in presence of EDTA by CLSI based broth dilution method; type: functional
Pseudomonas aeruginosa [33] = assay: Antibacterial activity against Pseudomonas aeruginosa ATCC 27853 assessed as increase in MIC at sub-MIC level after 15 passages by broth microdilution assay; type: functional
Pseudomonas aeruginosa [34] = assay: Antibacterial activity against rifampin-resistant Pseudomonas aeruginosa ATCC 27853 incubated for 18 hrs by CLSI based broth dilution method; type: functional
Pseudomonas aeruginosa [35] = assay: Antibacterial activity against Pseudomonas aeruginosa ATCC 27853 incubated for 18 hrs in presence of EDTA by CLSI based broth dilution method; type: functional
Pseudomonas aeruginosa [36] = assay: Antibacterial activity against gentamicin-resistant Pseudomonas aeruginosa ATCC 27853 incubated for 18 hrs by CLSI based broth dilution method; type: functional

CC[C@H](C)[C@H](NC(=O)[C@H](CCCNC(=N)N)NC(=O)[C@H](CCCCN)NC(=O)[C@H](CC(C)C)NC(=O)[C@H](CC(C)C)NC(=O)CN)C(=O)N[C@@H](CCCCN)C(=O)N[C@H](C(=O)N[C@@H](CC(C)C)C(=O)N[C@@H](CC(C)C)C(N)=O)[C@@H](C)O [ANOPLIN] (H-GLLKRIKTLL-NH2)
Activity (Staphylococcus aureus [1]): Active | half-life [2]: 2.24 h | MIC (Bacteria [3]): 76.1 µM (≈ 87.8 µg/mL) | MIC (Escherichia coli [4]): 128 µM (≈ 148 µg/mL) | Activity (Cell membrane [5]): inactive | Activity (Klebsiella pneumoniae [6]): Active | MIC (Bacillus subtilis): 8 µM (≈ 9.23 µg/mL) | MHC10 (Erythrocyte): >= 512 uM | Activity (Staphylococcus aureus [7]): Active | Activity (Escherichia coli [8]): Active | selectivity ratio at 18 h [9]: 8 | MIC [10]: 16 µM (≈ 18.5 µg/mL) | Activity (Staphylococcus aureus [11]): Tde | Activity (Staphylococcus aureus [12]): Active | Activity (Pseudomonas aeruginosa [13]): inactive | MIC (Enterococcus faecalis): ≥ 512 µM | selectivity ratio [14]: 6.73 | Activity (Klebsiella pneumoniae [15]): Active | Activity (Klebsiella pneumoniae [16]): Tde | Activity (Cell membrane [17]): inactive | selectivity ratio [18]: 5.66 | MIC (Klebsiella pneumoniae [19]): 128 µM (≈ 148 µg/mL) | MIC (Bacteria [20]): 90.5 µM (≈ 104 µg/mL) | MIC (Acinetobacter baumannii): ≥ 512 µM | MIC (Fungi): 76.1 µM (≈ 87.8 µg/mL) | Activity (Staphylococcus aureus [21]): inactive | Activity (Klebsiella pneumoniae [22]): Active | Time [23]: 12.14 min | Activity (Cell membrane [24]): inactive | selectivity ratio [25]: 6.73 | MIC (Bacteria [26]): 64 µM (≈ 73.8 µg/mL) | FIC (Pseudomonas aeruginosa [27]): 0.5625 | pIC50 [28]: ≤ 3.29 | MIC (Staphylococcus aureus [29]): 256 µM (≈ 295 µg/mL) | Activity (Staphylococcus aureus [30]): inactive | MIC (Pseudomonas aeruginosa [31]): 8 µM (≈ 9.23 µg/mL)

CO[C@H]1/C=C/O[C@@]2(C)Oc3c(C)c(O)c4c(O)c(c(/C=N/N5CCN(C)CC5)c(O)c4c3C2=O)NC(=O)/C(C)=C\C=C\[C@H](C)[C@H](O)[C@@H](C)[C@@H](O)[C@@H](C)[C@H](OC(C)=O)[C@@H]1C [RIFAMPIN]
MIC (Pseudomonas aeruginosa [32]): 2050 µM | MIC (Escherichia coli [4]): 4 µM (≈ 3.29 µg/mL) | MIC (Bacillus subtilis): < 1 µM | MIC [10]: < 1 µM | MIC (Enterococcus faecalis): < 1 µM | MIC (Klebsiella pneumoniae [19]): 32 µM (≈ 26.3 µg/mL) | MIC (Acinetobacter baumannii): < 1 µM | fold change (FC) (Pseudomonas aeruginosa [33]): 128 | MIC (Pseudomonas aeruginosa [34]): 2050 µM (≈ 1690 µg/mL) | MIC (Pseudomonas aeruginosa [35]): 2 µM | MIC (Staphylococcus aureus [29]): < 1 µM | MIC (Pseudomonas aeruginosa [36]): 32 µM (≈ 26.3 µg/mL) | MIC (Pseudomonas aeruginosa [31]): 4 µM (≈ 3.29 µg/mL)

Reference: ChEMBL document CHEMBL4823282, “Novel Broad-Spectrum Antimicrobial Peptide Derived from Anoplin and Its Activity on Bacterial Pneumonia in Mice” (J Med Chem, 2021)
